Laboratory results published in paper PMC11062922 (Nature Chemical Biology, 2023).

Key:
GALK1 = test: Kinobeads competition binding: GALK1; set-up: species or system human; details: target GALK1
PKN2 = molecular target: T1, PKN2 (Homo sapiens, UniProt Q16513); test: Kinobeads competition binding: PKN2; details: target PKN2;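 further: share of total target engagement due to this protein at one drug concentration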
T1 construct: a mixture of lysates from five cancer cell lines; endogenous in cells
Excerpt: Supplement 41589_2023_1459_MOESM4_ESM.xlsx, sheet "CATDS matrix" | column: PKN2

ACVR1 = molecular target: T2, ACVR1 (Homo sapiens, UniProt Q04771); test: Kinobeads competition binding: ACVR1; details: target ACVR1;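 further: target engagement share of this target among all targets at its Kdapp concentration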
T2 construct: to maximize the representation of endogenous proteins; endogenous in cells
T2 sequence (Q04771 21-509): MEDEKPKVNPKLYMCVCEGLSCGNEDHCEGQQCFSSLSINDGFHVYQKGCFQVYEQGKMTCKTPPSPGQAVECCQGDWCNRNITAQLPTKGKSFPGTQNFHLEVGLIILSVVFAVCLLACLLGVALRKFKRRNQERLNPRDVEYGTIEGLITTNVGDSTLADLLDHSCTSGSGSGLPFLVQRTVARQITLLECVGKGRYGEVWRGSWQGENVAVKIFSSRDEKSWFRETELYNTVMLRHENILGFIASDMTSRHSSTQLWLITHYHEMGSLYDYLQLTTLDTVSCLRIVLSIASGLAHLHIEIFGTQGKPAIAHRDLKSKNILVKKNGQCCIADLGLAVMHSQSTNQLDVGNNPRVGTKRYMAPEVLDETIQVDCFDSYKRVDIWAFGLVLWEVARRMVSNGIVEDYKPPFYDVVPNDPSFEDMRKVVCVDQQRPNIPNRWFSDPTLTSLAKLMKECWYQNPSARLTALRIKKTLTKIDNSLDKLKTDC
Excerpt: Supplement 41589_2023_1459_MOESM4_ESM.xlsx, sheet "CATDS matrix" | column: ACVR1

EPHA4 = molecular target: T3, EPHA4 (Homo sapiens, UniProt P54764); test: Kinobeads competition binding: EPHA4; details: target EPHA4
T3 construct: endogenous in cells
T3 sequence (P54764 20-986): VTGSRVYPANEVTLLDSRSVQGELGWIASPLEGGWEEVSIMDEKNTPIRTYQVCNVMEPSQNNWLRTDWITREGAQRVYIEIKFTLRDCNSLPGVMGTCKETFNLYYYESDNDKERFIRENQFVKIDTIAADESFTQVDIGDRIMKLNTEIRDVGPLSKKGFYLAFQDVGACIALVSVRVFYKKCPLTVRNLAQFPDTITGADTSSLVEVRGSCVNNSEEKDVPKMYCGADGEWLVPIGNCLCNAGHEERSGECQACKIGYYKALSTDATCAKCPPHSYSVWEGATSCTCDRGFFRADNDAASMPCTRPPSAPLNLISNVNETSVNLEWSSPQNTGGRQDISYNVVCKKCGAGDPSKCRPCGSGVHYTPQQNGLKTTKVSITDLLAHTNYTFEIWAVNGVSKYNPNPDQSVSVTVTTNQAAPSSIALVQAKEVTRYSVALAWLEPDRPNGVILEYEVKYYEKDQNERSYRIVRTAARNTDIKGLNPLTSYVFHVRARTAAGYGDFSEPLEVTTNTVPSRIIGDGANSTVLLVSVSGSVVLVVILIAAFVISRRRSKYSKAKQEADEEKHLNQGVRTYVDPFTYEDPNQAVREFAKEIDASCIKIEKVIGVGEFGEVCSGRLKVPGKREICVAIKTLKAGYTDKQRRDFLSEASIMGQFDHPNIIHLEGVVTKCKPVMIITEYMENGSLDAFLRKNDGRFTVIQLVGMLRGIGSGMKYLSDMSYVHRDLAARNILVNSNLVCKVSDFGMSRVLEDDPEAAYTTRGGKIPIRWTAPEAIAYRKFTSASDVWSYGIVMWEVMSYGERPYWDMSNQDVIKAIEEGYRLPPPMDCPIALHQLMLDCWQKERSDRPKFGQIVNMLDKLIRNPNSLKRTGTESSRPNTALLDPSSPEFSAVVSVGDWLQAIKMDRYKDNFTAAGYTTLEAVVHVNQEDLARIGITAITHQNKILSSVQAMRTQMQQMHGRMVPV
Excerpt: Supplement 41589_2023_1459_MOESM4_ESM.xlsx, sheet "CATDS matrix" | column: EPHA4

MAP2K6 = test: Kinobeads competition binding: MAP2K6; set-up: species or system human; details: target MAP2K6
ACVR2B = test: Kinobeads competition binding: ACVR2B; set-up: species or system human; details: target ACVR2B
EPHB1 = molecular target: T4, EPHB1 (Homo sapiens, UniProt P54762); test: Kinobeads competition binding: EPHB1; details: target EPHB1
T4 construct: endogenous in cells
T4 sequence (P54762 18-984): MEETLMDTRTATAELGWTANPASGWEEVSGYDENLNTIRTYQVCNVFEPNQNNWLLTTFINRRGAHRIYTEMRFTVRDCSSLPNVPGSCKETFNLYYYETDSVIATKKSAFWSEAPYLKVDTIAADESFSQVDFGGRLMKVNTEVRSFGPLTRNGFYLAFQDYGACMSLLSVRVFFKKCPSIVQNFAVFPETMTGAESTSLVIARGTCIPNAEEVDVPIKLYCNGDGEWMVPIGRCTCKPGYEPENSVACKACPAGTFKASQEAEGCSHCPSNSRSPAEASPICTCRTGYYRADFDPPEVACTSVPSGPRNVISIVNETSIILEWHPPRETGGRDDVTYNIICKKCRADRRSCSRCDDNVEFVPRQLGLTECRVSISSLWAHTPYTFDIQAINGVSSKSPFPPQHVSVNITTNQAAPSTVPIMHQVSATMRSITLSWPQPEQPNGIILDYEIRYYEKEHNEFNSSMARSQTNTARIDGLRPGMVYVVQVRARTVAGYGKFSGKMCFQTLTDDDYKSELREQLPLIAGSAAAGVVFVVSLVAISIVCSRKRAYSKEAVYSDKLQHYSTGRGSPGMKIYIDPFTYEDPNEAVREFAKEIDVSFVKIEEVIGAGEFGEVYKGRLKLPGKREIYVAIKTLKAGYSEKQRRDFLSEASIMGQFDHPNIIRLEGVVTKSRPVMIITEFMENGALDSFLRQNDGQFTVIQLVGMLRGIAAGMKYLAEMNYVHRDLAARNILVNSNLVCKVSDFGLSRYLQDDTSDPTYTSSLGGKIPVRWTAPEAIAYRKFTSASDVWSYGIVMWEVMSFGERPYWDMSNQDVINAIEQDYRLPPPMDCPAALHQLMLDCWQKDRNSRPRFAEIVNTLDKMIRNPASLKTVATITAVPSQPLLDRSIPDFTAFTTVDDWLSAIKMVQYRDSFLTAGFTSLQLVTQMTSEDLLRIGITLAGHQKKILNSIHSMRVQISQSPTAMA
Excerpt: Supplement 41589_2023_1459_MOESM4_ESM.xlsx, sheet "CATDS matrix" | column: EPHB1

PIK3CG = molecular target: T5, PIK3CG (Homo sapiens, UniProt P48736); test: Kinobeads competition binding: PIK3CG; details: target PIK3CG;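 further: selectivity score: engagement of this protein divided by summed engagement of all targets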
T5 construct: endogenous in cells
T5 sequence (P48736 whole entry): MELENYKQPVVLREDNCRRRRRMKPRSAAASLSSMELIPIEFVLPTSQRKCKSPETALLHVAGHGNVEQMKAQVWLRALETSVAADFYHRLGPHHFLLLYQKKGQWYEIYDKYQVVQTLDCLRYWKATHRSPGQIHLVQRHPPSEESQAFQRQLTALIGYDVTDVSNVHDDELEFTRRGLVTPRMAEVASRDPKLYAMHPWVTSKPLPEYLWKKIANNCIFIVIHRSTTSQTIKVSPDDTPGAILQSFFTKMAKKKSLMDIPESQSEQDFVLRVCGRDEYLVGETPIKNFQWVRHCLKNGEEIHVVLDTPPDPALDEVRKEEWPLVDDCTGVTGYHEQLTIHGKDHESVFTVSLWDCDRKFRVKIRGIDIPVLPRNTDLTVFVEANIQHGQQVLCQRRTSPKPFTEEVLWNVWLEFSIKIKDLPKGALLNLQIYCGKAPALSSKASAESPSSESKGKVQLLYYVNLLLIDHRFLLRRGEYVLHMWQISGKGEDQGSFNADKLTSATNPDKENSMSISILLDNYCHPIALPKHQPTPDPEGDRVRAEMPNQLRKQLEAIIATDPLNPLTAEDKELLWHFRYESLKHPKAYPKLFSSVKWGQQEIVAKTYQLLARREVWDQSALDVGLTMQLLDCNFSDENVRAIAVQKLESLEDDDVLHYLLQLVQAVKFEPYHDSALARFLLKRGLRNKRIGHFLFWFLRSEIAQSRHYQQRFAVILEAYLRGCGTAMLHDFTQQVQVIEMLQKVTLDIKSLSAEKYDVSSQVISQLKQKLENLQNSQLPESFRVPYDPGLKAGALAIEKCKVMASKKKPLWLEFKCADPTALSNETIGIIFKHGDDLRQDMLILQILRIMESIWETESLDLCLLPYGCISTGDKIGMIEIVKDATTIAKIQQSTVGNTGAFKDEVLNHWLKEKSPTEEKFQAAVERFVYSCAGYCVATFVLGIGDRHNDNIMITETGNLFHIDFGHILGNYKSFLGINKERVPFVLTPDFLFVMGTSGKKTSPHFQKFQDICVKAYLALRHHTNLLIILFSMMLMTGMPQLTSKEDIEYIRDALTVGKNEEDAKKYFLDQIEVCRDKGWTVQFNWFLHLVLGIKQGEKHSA
Excerpt: Supplement 41589_2023_1459_MOESM4_ESM.xlsx, sheet "CATDS matrix" | column: PIK3CG

INSR = test: Kinobeads competition binding: INSR; set-up: species or system human; details: target INSR;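 further: share of total target engagement due to this protein at one drug concentration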
IRAK4 = test: Kinobeads competition binding: IRAK4; set-up: species or system human; details: target IRAK4
CDK10 = test: Kinobeads competition binding: CDK10; set-up: species or system human; details: target CDK10

Measured: CATDS

T1 sequence (Q16513 whole entry): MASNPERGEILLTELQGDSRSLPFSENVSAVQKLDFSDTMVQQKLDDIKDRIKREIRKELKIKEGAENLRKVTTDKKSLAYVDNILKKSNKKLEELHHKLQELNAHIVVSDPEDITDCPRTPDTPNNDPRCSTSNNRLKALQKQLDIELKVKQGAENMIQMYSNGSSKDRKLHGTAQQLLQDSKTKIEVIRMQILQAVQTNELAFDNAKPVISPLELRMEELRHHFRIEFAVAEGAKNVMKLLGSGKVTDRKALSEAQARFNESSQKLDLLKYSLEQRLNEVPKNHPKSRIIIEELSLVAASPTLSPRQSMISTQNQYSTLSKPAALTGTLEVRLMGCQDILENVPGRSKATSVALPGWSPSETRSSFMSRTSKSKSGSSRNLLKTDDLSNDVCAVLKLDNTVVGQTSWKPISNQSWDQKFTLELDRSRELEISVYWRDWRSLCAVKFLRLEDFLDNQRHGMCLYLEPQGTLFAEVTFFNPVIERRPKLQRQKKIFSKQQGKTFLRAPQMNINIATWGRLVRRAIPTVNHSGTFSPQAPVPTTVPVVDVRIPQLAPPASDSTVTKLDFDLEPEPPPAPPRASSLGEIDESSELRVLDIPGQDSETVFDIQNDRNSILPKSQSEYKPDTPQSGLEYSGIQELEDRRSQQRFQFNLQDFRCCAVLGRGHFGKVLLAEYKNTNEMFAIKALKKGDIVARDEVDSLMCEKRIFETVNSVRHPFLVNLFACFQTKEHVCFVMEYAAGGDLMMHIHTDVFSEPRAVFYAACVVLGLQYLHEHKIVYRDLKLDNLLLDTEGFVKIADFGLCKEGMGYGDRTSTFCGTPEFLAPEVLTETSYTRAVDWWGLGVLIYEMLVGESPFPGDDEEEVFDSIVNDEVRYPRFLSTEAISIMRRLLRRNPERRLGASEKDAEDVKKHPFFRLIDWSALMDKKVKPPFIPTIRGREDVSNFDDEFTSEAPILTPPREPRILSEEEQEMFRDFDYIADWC

Nc1ncnc2[nH]c(-c3ccccc3)nc12 [AH5015_KCGS]
0: all assays above

CCN1CCN(Cc2ccc(Nc3ncc(F)c(-c4cc(F)c5nc(C)n(C(C)C)c5c4)n3)nc2)CC1 [Abemaciclib]
0: all assays above

CN(C)C/C=C/C(=O)Nc1cc2c(Nc3ccc(F)c(Cl)c3)ncnc2cc1O[C@H]1CCOC1 [Afatinib]
not listed: MAP2K6 | ACVR2B | INSR | IRAK4
0: all other assays above

CCc1cc2c(cc1N1CCC(N3CCOCC3)CC1)C(C)(C)c1[nH]c3cc(C#N)ccc3c1C2=O [Alectinib]
0: all assays above

N#CC1(c2ccc(NC(=O)c3cccnc3NCc3ccncc3)cc2)CCCC1 [Apatinib]
0: all assays above
